From ChEMBL document CHEMBL1201862, “PubChem BioAssay data set” (2004)
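96-well plates; 48 h exposure; 5 concentrations. Endpoints by linear interpolation between flanking doses. Not reached: highest tested concentration assigned. Here, GI50 denotes the concentration required for 50% inhibition of growth.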 The source made the active and inactive calls. Cut-off read from the data, not from the text of the source: active = GI50 up to about 1.1 µM and inactive = higher.

Legend:
Test in all cases: NCI-60 cell line screen, 48 h
SNB-78 = tested on: SNB-78
KM-20L2 = tested on: KM-20L2
M19-MEL = tested on: M19-MEL
LXFL 529 = tested on: LXFL 529
HOP-18 = tested on: HOP-18
DMS-114 = tested on: DMS-114
DLD-1 = tested on: DLD-1
DMS-273 = tested on: DMS-273
RXF 631 = tested on: RXF 631

| Structure (SMILES) | GI50 (SNB-78) | GI50 (KM-20L2) | GI50 (M19-MEL) | GI50 (LXFL 529) | GI50 (HOP-18) | GI50 (DMS-114) | GI50 (DLD-1) | GI50 (DMS-273) | GI50 (RXF 631) |
| --- | --- | --- | --- | --- | --- | --- | --- | --- | --- |
| [O-][Cl+3]([O-])([O-])O.c1ccc(/N=c2\snc(-c3ccccc3)s2)cc1 | > 100 µM (inactive) | > 100 µM (inactive) | > 100 µM (inactive) | > 100 µM (inactive) | > 100 µM (inactive) | > 100 µM (inactive) | > 100 µM (inactive) | > 100 µM (inactive) |  |
| N#C[C@]12CC3(CC[C@H]1CC1(C2)OCCO1)OCCO3 | > 100 µM (inactive) | > 100 µM (inactive) | > 100 µM (inactive) | > 100 µM (inactive) | > 100 µM (inactive) | > 100 µM (inactive) | > 100 µM (inactive) | > 100 µM (inactive) | > 100 µM (inactive) |
| Cc1ccc(S(=O)(=O)Nc2cccc(C)c2C)cc1 | 62.1 µM (inactive) |  | 67.5 µM (inactive) | 56.2 µM (inactive) | > 100 µM (inactive) | 28.8 µM (inactive) |  | 45.6 µM (inactive) | 66.1 µM (inactive) |
| COC(=O)c1c(O)ccc(O)c1C(C(C)=O)C(C)=O | > 100 µM (inactive) |  | > 100 µM (inactive) | > 100 µM (inactive) |  | > 100 µM (inactive) | > 100 µM (inactive) | > 100 µM (inactive) |  |
| O=C1NC(=S)NC(=O)C1=Cc1ccc[nH]1 | 19.4 µM (inactive) | 5.94 µM (inactive) | 13.4 µM (inactive) | 10.3 µM (inactive) | 36.4 µM (inactive) | 10.8 µM (inactive) | 6.85 µM (inactive) | 3.79 µM (inactive) |  |
| Oc1c(Cl)c2nccnc2c2ccccc12 | > 100 µM (inactive) | > 100 µM (inactive) | > 100 µM (inactive) | > 100 µM (inactive) | 36.9 µM (inactive) | > 100 µM (inactive) | > 100 µM (inactive) | > 100 µM (inactive) |  |
| Cc1[nH]c2ccccc2c1C(=O)CC1(O)C(=O)Nc2c(Cl)cc(Cl)cc21 (stereo not given) | 40.7 µM (inactive) |  | 9.31 µM (inactive) | 16.4 µM (inactive) | 25.6 µM (inactive) | 24.3 µM (inactive) | 44.9 µM (inactive) | 49.1 µM (inactive) | 29.4 µM (inactive) |
| CC1=C(C(=O)Nc2ccccc2C)C(c2ccccc2C)C(C(=O)Nc2ccccc2C)=C(C)N1 | 33 µM (inactive) | 20.9 µM (inactive) | 21.7 µM (inactive) | > 10 µM (inactive) | 18.4 µM (inactive) | 26.6 µM (inactive) | 14.7 µM (inactive) |  | 26.1 µM (inactive) |
| NC1C2(CCCCCC2)NC(=O)C12CCCCCC2 (stereo not given) | > 100 µM (inactive) |  |  | > 100 µM (inactive) | > 100 µM (inactive) | > 100 µM (inactive) | > 100 µM (inactive) | > 100 µM (inactive) | > 100 µM (inactive) |
| O=C1c2c(O)cccc2C(C(=O)CCCCC(=O)C2c3cccc(O)c3C(=O)c3c(O)cccc32)c2cccc(O)c21 | 0.55 µM (active) | 0.918 µM (active) |  | 0.441 µM (active) | 0.652 µM (active) | 0.522 µM (active) | 1.04 µM (active) | 1.63 µM (inactive) | 0.78 µM (active) |
| O=C(Cc1nc(-c2ccccc2)cc(=O)n1-c1ccccc1Cl)c1ccncc1 | > 100 µM (inactive) | > 100 µM (inactive) | > 100 µM (inactive) | > 100 µM (inactive) | > 100 µM (inactive) | > 100 µM (inactive) | > 100 µM (inactive) | > 100 µM (inactive) | > 100 µM (inactive) |
| Cn1cc(C(=O)C[n+]2ccccc2)c2ccccc21 |  | 33 µM (inactive) | 59.8 µM (inactive) | > 10 µM (inactive) |  | 49.7 µM (inactive) | > 100 µM (inactive) | 42.3 µM (inactive) |  |
| C[N+]12c3ccccc3O[B-]1(c1ccccc1)Oc1ccccc12 (stereo not given) | 47 µM (inactive) |  |  | 28.4 µM (inactive) | 42.9 µM (inactive) | 17.6 µM (inactive) | 18.2 µM (inactive) | 29.2 µM (inactive) |  |
| COC(=O)C1C(C(=O)OC)C2C(=O)C3C(C(=O)OC)C(C(=O)OC)C3C(=O)C12 (stereo not given) | 64.3 µM (inactive) | > 100 µM (inactive) | > 100 µM (inactive) | > 100 µM (inactive) | > 100 µM (inactive) |  |  | > 100 µM (inactive) | > 100 µM (inactive) |
| O=C(Cc1ccccc1)NN1C(=O)C(Cl)C1c1ccccc1O (stereo not given) | 50.7 µM (inactive) | 4.57 µM (inactive) | 19.3 µM (inactive) | 24.4 µM (inactive) | 3.82 µM (inactive) | 4.46 µM (inactive) | 9.95 µM (inactive) | 20.5 µM (inactive) |  |
| CNC1=Nc2ccc(Cl)cc2C(c2ccccc2)=NN1C | > 100 µM (inactive) | > 100 µM (inactive) | > 100 µM (inactive) | > 100 µM (inactive) |  | 53.2 µM (inactive) | > 100 µM (inactive) | > 100 µM (inactive) | 74 µM (inactive) |
| Cc1nc2c(o1)C(=O)c1ccccc1/C2=N\c1ccccc1 | 3.22 µM (inactive) | 20.5 µM (inactive) | 1.82 µM (inactive) | 3.23 µM (inactive) | 1.85 µM (inactive) | 1.48 µM (inactive) | 13.7 µM (inactive) | 2.49 µM (inactive) | > 10 µM (inactive) |
| CC[C@@]1(O)C(=O)OCc2c1cc1n(c2=O)Cc2c-1nc1ccccc1c2Cl | 2.65 µM (inactive) | 0.216 µM (active) | 0.08 µM (active) | 0.935 µM (active) | 0.0598 µM (active) | < 0.0104 µM (active) | 0.877 µM (active) | < 0.01 µM (active) |  |
| Cc1noc2c1C(=O)CCC2 | > 100 µM (inactive) | > 100 µM (inactive) | > 100 µM (inactive) | > 100 µM (inactive) | > 100 µM (inactive) | > 100 µM (inactive) | > 100 µM (inactive) |  |  |
